Reference: patent publication US10676485B2, “Macrocyclic MCL-1 inhibitors and methods of use” (AbbVie Inc., priority 2017, dated 2020)
Read-outs that look alike come from different tables or passages of the source.

Assays:
[1] = molecular target: GST-MCL-1 (Homo sapiens (Human), UniProt Q07820); experiment: TR-FRET MCL-1 binding assay (competition with probe F-Bak)
Experimental: For the assay, an acoustic dispenser was used to prepare dilution series from 10 mM test compounds in 100% DMSO and directly transfer 160 nL into low volume 384-well assay plates. 8 μL of a protein/probe/antibody mix was then added to each well resulting in final concentrations listed below: Test compound: 11 three-fold dilutions beginning at 25 μM
The samples were then mixed on a shaker for 1 minute and incubated for an additional 2 hours at room temperature. For each assay plate, a probe/antibody and protein/antibody/probe mixture were included as a negative and a positive control, respectively. Fluorescence was measured on the Envision (Perkin Elmer) using a 340/35 nm excitation filter and 520/525 (F-Bak) and 495/510 nm (Tb-labeled anti-his antibody) emission filters. […] The TR-FRET assay can be performed in the presence of varying concentrations of human serum (HS) or fetal bovine serum (FBS). Compounds were tested both without HS and in the presence of 10% HS.

[2] = test system: AMO-1 human multiple myeloma tumor cell line; experiment: AMO-1 cell viability assay (CellTiter-Glo); assay type: cell-based; details: AMO1, read-out: AMO-1 Viability IC50 (μM), 10% FBS, 24 hours of compound treatment
Experimental: (§1) In one exemplary set of conditions, NCI-H929 or AMO-1 (ATCC. Manassas, Va.) were plated 4.000 cells per well in 384-well tissue culture plates (Corning. Corning, N.Y.) in a total volume of 25 μL RPMI tissue culture medium supplemented with 10% fetal bovine serum (Sigma-Aldrich, St. Louis, Mo.) and treated with a 3-fold serial dilution of the compounds of interest with a Labcyte Echo from a final concentration of 10 μM to 0.0005 μM. Each concentration was tested in duplicate at least 3 independent times. A luminescent signal proportional to the number of viable cells following 24 hours of compound treatment was determined using the CellTiter-Glo® Luminescent Cell Viability Assay according to the manufacturer's recommendations (Promega Corp., Madison, Wis.). The plates were read in a Perkin Elmer Envision using a Luminescence protocol. To generate dose response curves the data is normalized to percent viability by setting the averages of the staurosporine (10 uM) and DMSO only control wells to 0% and (00)% viability respectively. The IC50 values for the compounds are generated by fitting the normalized data with Accelrys Assay Explorer 3.3 to a sigmoidal curve model using linear regression.

[3] = test system: NCI-H929 human multiple myeloma tumor cell line; experiment: NCI-H929 cell viability assay (CellTiter-Glo); assay type: cell-based; details: NCI-H929, read-out: H929 Viability IC50 (μM), 10% FBS, 24 hours of compound treatment
Experimental: as §1

[4] = read-out: MCL-1 Binding Ki (nM, 10% HS), in the presence of 10% HS
[5] = without HS, read-out: MCL-1 Binding Ki

GST-MCL-1, sequence (Q07820 whole entry): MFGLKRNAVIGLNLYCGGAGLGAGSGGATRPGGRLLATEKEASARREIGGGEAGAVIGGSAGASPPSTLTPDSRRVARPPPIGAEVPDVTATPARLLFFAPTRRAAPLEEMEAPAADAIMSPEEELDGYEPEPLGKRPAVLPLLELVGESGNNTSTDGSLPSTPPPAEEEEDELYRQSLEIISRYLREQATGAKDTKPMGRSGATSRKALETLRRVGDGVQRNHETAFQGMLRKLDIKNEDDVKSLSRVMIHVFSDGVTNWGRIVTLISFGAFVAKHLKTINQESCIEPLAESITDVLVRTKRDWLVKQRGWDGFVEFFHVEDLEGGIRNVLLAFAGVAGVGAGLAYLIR

`Cc1c(Cl)c2c(Cl)c(C)c1-c1c(-c3ccc(F)cc3)sc3ncnc(c13)O[C@@H](C(=O)O)Cc1cc(ccc1OCc1ccnc([C@H]3CC[C@](F)(COC[C@@H]4COCCO4)CC3)n1)OC[C@@H](CN1CCN(C)CC1)O2` [Example 28, (7R,16R)-19,23-dichloro-10-({2-[(1R,4s)-4-({[(2S)-1,4-dioxan-2-yl]methoxy}methyl)-4-fluorocyclohexyl]pyrimidin-4-yl}methoxy)-1-(4-fluorophenyl)-20,22-dimethyl-16-[(4-methylpiperazin-1-yl)methyl]-7,8,15,16-tetrahydro-18,21-etheno-13,9-(metheno)-6,14,17-trioxa-2-thia-3,5-diazacyclononadeca[1,2,3-cd]indene-7-carboxylic acid] was tested, and the Ki [1, 4] was 0.18 nM, the Ki [1, 5] was 0.017 nM and the IC50 [2] was 0.211 nM. The IC50 [3] was 0.000337 µM.
In the case of `Cc1c(Cl)c2c(Cl)c(C)c1-c1c(-c3ccc(F)cc3)sc3ncnc(c13)O[C@@H](C(=O)O)Cc1cc(ccc1OCc1ccnc(-c3ccc(NC[C@@H]4COCCO4)nc3)n1)OC[C@@H](CN1CCN(C)CC1)O2` [Example 41, (7R,16R)-19,23-dichloro-10-({2-[6-({[(2R)-1,4-dioxan-2-yl]methyl}amino)pyridin-3-yl]pyrimidin-4-yl}methoxy)-1-(4-fluorophenyl)-20,22-dimethyl-16-[(4-methylpiperazin-1-yl)methyl]-7,8,15,16-tetrahydro-18,21-etheno-13,9-(metheno)-6,14,17-trioxa-2-thia-3,5-diazacyclononadeca[1,2,3-cd]indene-7-carboxylic acid], the Ki [1, 4] is reported as 0.14 nM, the Ki [1, 5] is reported as 0.009 nM and the IC50 [2] is reported as 0.589 nM. The IC50 [3] was 0.000595 µM.
`COc1ccccc1-c1nccc(COc2ccc3cc2C[C@H](C(=O)O)Oc2ncnc4sc(C[C@H]5COCCO5)c(c24)-c2c(C)c(Cl)c(c(Cl)c2C)O[C@H](CN2CCN(C)CC2)CO3)n1` [Example 19, (7R,16R)-19,23-dichloro-1-{[(2S)-1,4-dioxan-2-yl]methyl}-10-{[2-(2-methoxyphenyl)pyrimidin-4-yl]methoxy}-20,22-dimethyl-16-[(4-methylpiperazin-1-yl)methyl]-7,8,15,16-tetrahydro-18,21-etheno-13,9-(metheno)-6,14,17-trioxa-2-thia-3,5-diazacyclononadeca[1,2,3-cd]indene-7-carboxylic acid] was tested, and the Ki [1, 4] was 0.64 nM, the Ki [1, 5] was 0.156 nM and the IC50 [2] was 9.74 nM. The IC50 [3] was 0.0152 µM.
Work on `Cc1c(Cl)c2c(Cl)c(C)c1-c1c(-c3ccc(F)cc3)sc3ncnc(c13)O[C@@H](C(=O)O)Cc1cc(ccc1OCc1ccnc([C@H]3CC[C@H](COC[C@H]4COCCO4)CC3)n1)OC[C@@H](CN1CCN(C)CC1)O2` [Example 51, (7R,16R)-19,23-dichloro-10-({2-[(1R,4r)-4-({[(2S)-1,4-dioxan-2-yl]methoxy}methyl)cyclohexyl]pyrimidin-4-yl}methoxy)-1-(4-fluorophenyl)-20,22-dimethyl-16-[(4-methylpiperazin-1-yl)methyl]-7,8,15,16-tetrahydro-18,21-etheno-13,9-(metheno)-6,14,17-trioxa-2-thia-3,5-diazacyclononadeca[1,2,3-cd]indene-7-carboxylic acid] yielded a Ki [1, 4] of 0.131 nM, a Ki [1, 5] of under 0.01 nM and an IC50 [2] of 0.267 nM. For the same molecule, the IC50 [3] was 0.000299 µM.
In the case of `Cc1c(Cl)c2c(Cl)c(C)c1-c1c(-c3ccc(F)cc3)sc3ncnc(c13)O[C@@H](C(=O)O)Cc1cc(ccc1OCc1ccnc([C@H]3CC[C@H](COC[C@@H]4COCCO4)CC3)n1)OC[C@@H](CN1CCN(C)CC1)O2` [Example 49, (7R,16R)-19,23-dichloro-10-({2-[(1S,4r)-4-({[(2R)-1,4-dioxan-2-yl]methoxy}methyl)cyclohexyl]pyrimidin-4-yl}methoxy)-1-(4-fluorophenyl)-20,22-dimethyl-16-[(4-methylpiperazin-1-yl)methyl]-7,8,15,16-tetrahydro-18,21-etheno-13,9-(metheno)-6,14,17-trioxa-2-thia-3,5-diazacyclononadeca[1,2,3-cd]indene-7-carboxylic acid], the Ki [1, 4] is reported as 0.128 nM, the Ki [1, 5] is reported as under 0.01 nM and the IC50 [2] is reported as 0.172 nM. For the same molecule, the IC50 [3] was 0.000314 µM.
Work on `Cc1c(Cl)c2c(Cl)c(C)c1-c1c(-c3ccc(F)cc3)sc3ncnc(c13)O[C@@H](C(=O)O)Cc1cc(ccc1OCc1ccnc(N3CCO[C@@H](COCC4COCCO4)C3)n1)OC[C@@H](CN1CCN(C)CC1)O2` (stereo partly drawn) [Example 20, (7R,16R)-19,23-dichloro-10-({2-[(2R)-2-{[(1,4-dioxan-2-yl)methoxy]methyl}morpholin-4-yl]pyrimidin-4-yl}methoxy)-1-(4-fluorophenyl)-20,22-dimethyl-16-[(4-methylpiperazin-1-yl)methyl]-7,8,15,16-tetrahydro-18,21-etheno-13,9-(metheno)-6,14,17-trioxa-2-thia-3,5-diazacyclononadeca[1,2,3-cd]indene-7-carboxylic acid] yielded a Ki [1, 4] of 0.47 nM, a Ki [1, 5] of 0.058 nM and an IC50 [2] of 0.286 nM. It also gave an IC50 [3] of 0.000513 µM.
Work on `Cc1c(Cl)c2c(Cl)c(C)c1-c1c(-c3ccc(F)cc3)sc3ncnc(c13)O[C@@H](C(=O)O)Cc1cc(ccc1OCc1cc(-c3ccc(OC[C@H]4COCCO4)cc3)ncn1)OC[C@@H](CN1CCN(C)CC1)O2` [Example 31, (7R,16R)-19,23-dichloro-10-{[6-(4-{[(2R)-1,4-dioxan-2-yl]methoxy}phenyl)pyrimidin-4-yl]methoxy}-1-(4-fluorophenyl)-20,22-dimethyl-16-[(4-methylpiperazin-1-yl)methyl]-7,8,15,16-tetrahydro-18,21-etheno-13,9-(metheno)-6,14,17-trioxa-2-thia-3,5-diazacyclononadeca[1,2,3-cd]indene-7-carboxylic acid] yielded a Ki [1, 4] of 5.27 nM, a Ki [1, 5] of 0.373 nM and an IC50 [2] of 4.19 nM. The IC50 [3] was 0.011 µM.
`Cc1c(Cl)c2c(Cl)c(C)c1-c1c(C3CCC3)sc3ncnc(c13)O[C@@H](C(=O)O)Cc1cc(ccc1OCc1ccnc([C@H]3CC[C@H](OCC4COCCO4)CC3)n1)OC[C@@H](CN1CCN(C)CC1)O2` (stereo partly drawn) [Example 29, (7R,16R)-19,23-dichloro-1-cyclobutyl-10-[(2-{(1r,4r)-4-[(1,4-dioxan-2-yl)methoxy]cyclohexyl}pyrimidin-4-yl)methoxy]-20,22-dimethyl-16-[(4-methylpiperazin-1-yl)methyl]-7,8,15,16-tetrahydro-18,21-etheno-13,9-(metheno)-6,14,17-trioxa-2-thia-3,5-diazacyclononadeca[1,2,3-cd]indene-7-carboxylic acid] was tested, and the Ki [1, 4] was 0.55 nM, the Ki [1, 5] was 0.011 nM and the IC50 [2] was 0.0812 nM. The IC50 [3] was 0.000346 µM.
`Cc1c(Cl)c2c(Cl)c(C)c1-c1c(C3=CCCC3)sc3ncnc(c13)O[C@@H](C(=O)O)Cc1cc(ccc1OCc1ccnc(C3=CC[C@](F)(COC[C@@H]4COCCO4)CC3)n1)OC[C@@H](CN1CCN(C)CC1)O2` [Example 35, (7R,16R)-19,23-dichloro-1-(cyclopent-1-en-1-yl)-10-({2-[(4S)-4-({[(2S)-1,4-dioxan-2-yl]methoxy}methyl)-4-fluorocyclohex-1-en-1-yl]pyrimidin-4-yl}methoxy)-20,22-dimethyl-16-[(4-methylpiperazin-1-yl)methyl]-7,8,15,16-tetrahydro-18,21-etheno-13,9-(metheno)-6,14,17-trioxa-2-thia-3,5-diazacyclononadeca[1,2,3-cd]indene-7-carboxylic acid] gave a Ki [1, 4] of 0.52 nM, a Ki [1, 5] of 0.027 nM and an IC50 [2] of 0.261 nM. The IC50 [3] was 0.00111 µM.
With `Cc1c(Cl)c2c(Cl)c(C)c1-c1c(C3=CCCC3)sc3ncnc(c13)O[C@@H](C(=O)O)Cc1cc(ccc1OCc1ccnc(C3=CC[C@](F)(COC[C@H]4COCCO4)CC3)n1)OC[C@@H](CN1CCN(C)CC1)O2` [Example 34, (7R,16R)-19,23-dichloro-1-(cyclopent-1-en-1-yl)-10-({2-[(4S)-4-({[(2R)-1,4-dioxan-2-yl]methoxy}methyl)-4-fluorocyclohex-1-en-1-yl]pyrimidin-4-yl}methoxy)-20,22-dimethyl-16-[(4-methylpiperazin-1-yl)methyl]-7,8,15,16-tetrahydro-18,21-etheno-13,9-(metheno)-6,14,17-trioxa-2-thia-3,5-diazacyclononadeca[1,2,3-cd]indene-7-carboxylic acid] the Ki [1, 4] was 0.54 nM, the Ki [1, 5] was 0.03 nM and the IC50 [2] was 0.235 nM. For the same molecule, the IC50 [3] was 0.001 µM.
For `Cc1c(Cl)c2c(Cl)c(C)c1-c1c(-c3ccc(F)cc3)sc3ncnc(c13)O[C@@H](C(=O)O)Cc1cc(ccc1OCc1ccnc(-c3ccc(OC[C@H]4COCCO4)cc3)n1)OC[C@@H](CN1CCN(C)CC1)O2` [Example 2, (7R,16R)-19,23-dichloro-10-{[2-(4-{[(2R)-1,4-dioxan-2-yl]methoxy}phenyl)pyrimidin-4-yl]methoxy}-1-(4-fluorophenyl)-20,22-dimethyl-16-[(4-methylpiperazin-1-yl)methyl]-7,8,15,16-tetrahydro-18,21-etheno-13,9-(metheno)-6,14,17-trioxa-2-thia-3,5-diazacyclononadeca[1,2,3-cd]indene-7-carboxylic acid], the Ki [1, 4] was 1.04 nM, the Ki [1, 5] was 0.052 nM and the IC50 [2] was 0.19 nM. For the same molecule, the IC50 [3] was 0.0033 µM.
